{"source": "ChEMBL document CHEMBL1129561", "about": "(J Med Chem, 1996)", "key": {"Androgen receptor [1]": {"biological_target": "T1, Androgen receptor (Homo sapiens, UniProt P10275)", "T1 sequence (P10275 whole entry)": "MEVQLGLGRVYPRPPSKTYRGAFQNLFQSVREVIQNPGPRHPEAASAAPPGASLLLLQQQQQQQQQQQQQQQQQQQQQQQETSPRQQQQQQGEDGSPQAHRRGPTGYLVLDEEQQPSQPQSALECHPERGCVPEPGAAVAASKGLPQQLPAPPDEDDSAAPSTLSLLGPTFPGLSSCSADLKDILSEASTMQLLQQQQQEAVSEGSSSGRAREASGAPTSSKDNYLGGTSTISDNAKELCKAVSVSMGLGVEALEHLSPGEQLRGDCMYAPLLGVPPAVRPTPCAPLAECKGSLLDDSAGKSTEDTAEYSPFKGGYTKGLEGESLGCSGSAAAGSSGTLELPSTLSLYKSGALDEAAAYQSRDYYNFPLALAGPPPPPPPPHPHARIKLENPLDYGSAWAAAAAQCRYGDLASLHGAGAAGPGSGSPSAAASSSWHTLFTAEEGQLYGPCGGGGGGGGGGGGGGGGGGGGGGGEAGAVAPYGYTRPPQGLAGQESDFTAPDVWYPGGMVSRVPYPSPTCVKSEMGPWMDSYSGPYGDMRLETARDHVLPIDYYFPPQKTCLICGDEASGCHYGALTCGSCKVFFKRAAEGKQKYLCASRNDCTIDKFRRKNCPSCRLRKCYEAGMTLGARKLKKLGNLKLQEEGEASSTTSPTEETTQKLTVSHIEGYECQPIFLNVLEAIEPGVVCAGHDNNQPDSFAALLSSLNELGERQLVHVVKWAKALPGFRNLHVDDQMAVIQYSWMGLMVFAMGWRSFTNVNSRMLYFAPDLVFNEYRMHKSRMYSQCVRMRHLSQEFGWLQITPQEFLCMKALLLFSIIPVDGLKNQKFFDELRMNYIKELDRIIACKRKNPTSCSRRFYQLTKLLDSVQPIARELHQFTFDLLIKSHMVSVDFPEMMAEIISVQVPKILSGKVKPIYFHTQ", "description": "Inhibitory activity against human Androgen receptor"}, "Androgen receptor [2]": {"biological_target": "T1, Androgen receptor", "remark": "listed apart in the source", "description": "Binding affinity determined against human Androgen receptor"}, "[3]": {"biological_target": "T2, Progesterone receptor (Homo sapiens) (UniProt P06401)", "T2 sequence (whole entry)": "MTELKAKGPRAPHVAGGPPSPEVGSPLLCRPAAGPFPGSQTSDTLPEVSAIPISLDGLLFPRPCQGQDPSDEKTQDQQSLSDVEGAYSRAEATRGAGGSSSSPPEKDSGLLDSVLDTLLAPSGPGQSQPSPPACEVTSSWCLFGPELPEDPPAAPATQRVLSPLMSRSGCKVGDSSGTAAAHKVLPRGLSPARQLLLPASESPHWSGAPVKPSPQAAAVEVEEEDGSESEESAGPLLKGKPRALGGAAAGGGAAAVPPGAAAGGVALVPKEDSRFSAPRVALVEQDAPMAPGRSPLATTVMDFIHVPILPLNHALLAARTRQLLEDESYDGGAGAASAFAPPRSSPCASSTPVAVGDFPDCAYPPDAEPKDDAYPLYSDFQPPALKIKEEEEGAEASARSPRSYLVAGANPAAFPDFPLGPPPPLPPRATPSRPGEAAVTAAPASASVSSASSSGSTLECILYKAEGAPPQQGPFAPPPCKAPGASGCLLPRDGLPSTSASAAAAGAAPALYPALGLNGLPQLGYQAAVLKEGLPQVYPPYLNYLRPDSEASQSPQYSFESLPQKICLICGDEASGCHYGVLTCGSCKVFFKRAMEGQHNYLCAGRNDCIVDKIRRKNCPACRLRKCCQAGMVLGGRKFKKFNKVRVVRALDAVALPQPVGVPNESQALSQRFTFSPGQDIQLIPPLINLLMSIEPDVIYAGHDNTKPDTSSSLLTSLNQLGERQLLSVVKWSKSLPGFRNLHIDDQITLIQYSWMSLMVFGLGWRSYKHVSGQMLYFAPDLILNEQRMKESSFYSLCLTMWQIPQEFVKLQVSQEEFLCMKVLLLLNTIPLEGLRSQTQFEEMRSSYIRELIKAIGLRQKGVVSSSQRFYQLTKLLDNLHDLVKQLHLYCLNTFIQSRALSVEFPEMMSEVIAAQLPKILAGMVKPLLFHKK", "conditions": "CV-1"}}}
{"smiles": "C=C1C=C(C)CC(C)(C)C1Cc1ccc([N+](=O)[O-])cc1", "note": "(stereo not drawn)", "values": [{"measurement": "IC50", "setting": "Androgen receptor [1]", "value": 0.25, "unit": "µM"}, {"measurement": "Ki", "setting": "Androgen receptor [2]", "value": 6.3, "unit": "µM"}, {"measurement": "Max inhibition", "setting": "[3]", "value": 90, "unit": "%"}]}
